Measurements published in patent US12629415B2, “Vaccine adjuvants” (THE PROVOST, FELLOWS, FOUNDATION SCHOLARS, AND THE OTHER …, priority 2018, dated 2026).
“Also recorded” adds a separate entry of the source.

Assays:
PBMCs or CBMCs [1] = experiment: HEK-Blue TNFα assay on supernatants; type: cell-based, human; conditions: CBMCs compared with PBMCs; 4, 8 or 24 hours
Procedure: (§1) Poly(I:C) (5 μg/ml) (Invivogen), Poly(dA:dT) (5 μg/ml) (Sigma-Aldrich), 2′3′ cGAMP (10 μg/ml), 5′ triphosphate double stranded RNA (5′ ppp dsRNA) (2.5 μg/ml) and HSV-60 (2 μg/ml) (all from Invivogen) were transfected into PBMCs or CBMCs using TransIT-X2 (Mirus).
(§2) Measurement of cytokines—HEK Blue TNFα/IFNα/β Assays were performed as per the manufacturer's (Invivogen) instructions using Quanti-Blue Detection Reagent. SEAP levels were determined using a spectrophotometer plate reader at 630 nm. IFNα (3425-1H-6, Mabtech) and IP-10 (DY266, R&D Systems) were detected by sandwich ELISA. IFNα ELISA used pan specific IFNα antibodies, which allows detection of IFNα subtypes 1/13, 2, 4, 5, 6, 7, 8, 10, 14, 16 and 17. BioLegend LEGENDplex™ Human Inflammation Panel (13-plex) was carried out as per manufacturer's (Biolegend) instructions to determine levels of IFNγ, IL-10, IL-12p70 and IL-23. A BD LSR Fortessa cell analyser was used to acquire samples and BioLegend LEGENDplex™ software was used for analysis.

[2] = system: adult PBMCs or neonatal CBMCs; experiment: HEK-Blue IFNα/β SEAP assay on supernatants of stimulated mononuclear cells; type: cell-based, human; conditions: for innate immune response in neonatal and/or paediatric blood: compared with adult blood, summary statement
Procedure: Isolation of mononuclear cells and monocytes—Primary PBMCs or CBMCs were isolated from healthy human blood or cord blood. Monocytes were isolated by negative selection using Monocyte Isolation Kit II (Miltenyi). […] Cells were cultured at 37° C., 5% CO2, 95% air in RPMI-1640, with stable 2.5 mM L-glutamine and 0.5 mM sodium pyruvate with 10% FBS (all from Sigma-Aldrich).
as §1, §2

PBMCs or CBMCs [3] = experiment: IFNα sandwich ELISA on supernatants; type: cell-based, human; conditions: for IFNα secretion (ELISA): CBMCs compared with PBMCs, 8 or 24 h
Procedure: as §1, §2

bovine PBMCs = experiment: Bovine IFN-γ ELISA on stimulated PBMCs; type: cell-based, cattle; conditions: calves <1 year old; ConA 1 μg/ml with or without LPS 100 pg/ml; 72 hours
Procedure: Bovine peripheral blood mononuclear cells were isolated from whole blood samples collected in 9m1 vacutainers containing Heparin anticoagulant. PBMCs were spun and separated using leucosep tubes (Cruinn) and a density gradient histopaque 1077 (Sigma-Aldrich) at a speed of 1200 g for 20 minutes. Red blood cell contamination was eliminated using sterile 0.25% sodium chloride (Baxter) as a lysis buffer. The cells were subsequently washed twice in PBS at a speed of 600 g for 10 minutes to remove impurities.
Cells were counted using a haemocytometer, microscope and trypan blue (Sigma Aldrich) and seeded at appropriate densities in tissue culture plates (Cruinn) containing media. The cells were incubated at 37° C. at 5% CO2 treated within hours of plating to avoid unwanted cell death.
When analysing the effects of IL-1β on T cell activation, cells were pre-treated with 250 μg/ml of IL-1 receptor antagonist (IL-1Ra) 40 minutes before stimulation with IL-1β (25 ng/ml). Cells were subsequently stimulated with concanavalin A (1 μg/ml) 1 hour after addition of IL-1β. Similarly, when analysing the effects of polydA:dT on T cell activation, cells were stimulated with polydA:dT (1 μg/ml) 1 hour before ConA treatment (1 μg/ml). LPS (100 pg/ml) primed cells were incubated with YVAD-FMK (10 μm), an inhibitor specific for caspase-1. After 40 minutes, the cells were stimulated with alum (50 μg/ml) for 24 hours and supernatants were then harvested and analysed by ELISA for IL-1β
Capture antibodies (50 μl/well), diluted in the appropriate buffers, were dispensed into the wells of high binding plates (Greiner Bio-One) and incubated overnight at room temperature or 4° C. For analysis of IL-17, the ELISA plates were pre-coated with capture antibody by the manufacturing before delivery. The wells were washed with PBS/Tween 3 times and the plates were then incubated with 150 μl of blocking buffer for 1 hour at room temperature. The plates were washed again before supernatant (neat or diluted) and recombinant standards were added for 1 hour at room temperature. Following this, the plates were washed and 50 μl of detection antibody was added to the wells for a period of 1 or 2 hours at room temperature. After washing, 50 μl diluted streptavidin-HRP was added to the plate for between 30 minutes and 1 hour. After the final wash, 50 μl of 3,3′-, 5,5′-Tetramethylbenzidine (TMB) substrate was added and the plates were incubated in the dark. The reaction was stopped by addition of 1M sulphuric acid and the absorbance readings were measured at 450 nm using a microtitre plate reader. The cytokine concentrations were calculated using a linear regression standard curve from recombinant cytokines of known concentration. Skanit™ software was used to estimate values.

PBMCs or CBMCs [4] = experiment: Quantitative RT-PCR of TNFα, IFNα and CXCL10 mRNA; type: cell-based, human; conditions: CBMCs vs PBMCs
Procedure: as §1
Quantitative RT-PCR—Total RNA from PBMCs or CBMCs was extracted using trizol extraction as previously described (16) and was reverse transcribed using MMLV Reverse Transcriptase (Promega) according to the manufacturer's protocol. This cDNA served as template for amplification of target genes, along with the ‘housekeeping’ gene βActin, by real-time PCR with SensiFast SYBR Green (Bioline) to determine the relative amounts of CXCL10, IFNα and TNFα mRNA. The ABI 7900HT system (Applied Biosystems) was used for real-time PCR, and the cycling threshold method (2^−(ΔΔCt)) was used for relative quantification by comparative method after normalization to βActin expression.

IRF7 = experiment: TransAM IRF7 activation assay on nuclear extracts; type: cell-based, human; conditions: CBMCs; LPS 15 min, CpG 1 h, Poly(I:C) transfection 1 h
Procedure: (§3) IRF3/7 activation—Active Motif TransAM™ IRF3 and IRF7 assays were carried out on nuclear extracts from PBMCs or CBMCs, harvested as per manufacturer's (Active Motif) instructions, to detect and quantify IRF3 or IRF7 activation.

IRF3 = experiment: TransAM IRF3 activation assay on nuclear extracts; type: cell-based, human; conditions: CBMCs
Procedure: as §3

PBMCs or CBMCs [5] = experiment: CXCL10 (IP-10) ELISA; type: cell-based, human; conditions: CBMCs compared with PBMCs
Procedure: as §1, §2

PBMCs or CBMCs [6] = experiment: BioLegend LEGENDplex Human Inflammation Panel; type: cell-based; conditions: CBMCs and PBMCs; Poly(I:C) 24 h, LPS 4 h, CpG ODN 24 h
Procedure: as §1, §2

[7] = system: mononuclear cells from cord blood, children's blood or adult blood; experiment: HEK-Blue IFNα/β and TNFα assays on mononuclear cells of cord blood, children and adults; type: cell-based, human; conditions: transfection 24 h, 4-24 months, 2-5 years, 6-11 years
Description: Umbilical cord blood samples were obtained from term births following normal pregnancy, labour and delivery at National Maternity Hospital (NMH), Holles St, Dublin 2. […] Venous blood from infants, children and adolescents of various ages was collected during elective surgical procedures where no indication of infection was present (such as hydrocele repair, umbilical hernia repair, onychocryptosis, orchipexy repair) in Our Lady's Children's Hospital Crumlin (OLCHC), Dublin 12. […] Volumes drawn were age and weight dependent, according to standard, approved guidelines. Ethics approval was obtained from the Ethics Committees of NMH and OLCHC and informed consent was obtained from each subject or their parent/guardian. Adult blood samples were from healthy adults, supplied by the Irish Blood Transfusion Service. • Poly(I:C), Poly(dA:dT) and cGAMP were obtained from Invivogen • Poly (dA:dT) is a repetitive synthetic double-stranded DNA sequence of poly(dA-dT)-poly(dT-dA) http://www.invivopen.com/poly-dadt-naked • Poly (I:C) comprises long strands of inosine poly(I) homopolymer annealed to strands of cytidine poly(C) homopolymer http://www.invivogen.com/polyic-hmw. • cGAMP is cyclic [G(2′,5′)pA(3′,5′)p]; Formula: […], 2Na Methodology
Isolation of mononuclear cells and monocytes—Primary PBMCs or CBMCs were isolated from healthy human blood or cord blood. Monocytes were isolated by negative selection using Monocyte Isolation Kit II (Miltenyi). Monocyte purity was assessed using CD14 staining and was routinely 85-95%. Cells were cultured at 37° C., 5% CO2, 95% air in RPMI-1640, with stable 2.5 mM L-glutamine and 0.5 mM sodium pyruvate with 10% FBS (all from Sigma-Aldrich).
as §1, §2

CCCc1nc2c(N)nc3ccccc3c2s1 [CL075, reference compound]
TNFα production (PBMCs or CBMCs [1]): no significant difference in TNFα production

Nc1nc2c(ncn2[C@@H]2O[C@@H]3COP(=O)(O)O[C@H]4[C@@H](O)[C@H](n5cnc6c(N)ncnc65)O[C@@H]4COP(=O)(O)O[C@@H]2[C@@H]3O)c(=O)[nH]1 [cGAMP, cyclic [G(2′,5′)pA(3′,5′)p]]
innate immune response in neonatal and/or paediatric blood [2]: robust innate immune response in neonatal and/or paediatric blood
IFNα secretion (ELISA) (PBMCs or CBMCs [3]): CBMCs responded equally well or with enhanced IFNα-production when compared with PBMCs
level of IFNα produced, relative to Poly(I:C) or Poly(dA:dT) (PBMCs or CBMCs [3]; adult and neonatal cells): lower than that in response to either Poly(I:C) or Poly(dA:dT)
TNFα production (PBMCs or CBMCs [1]): significantly more TNFα production from neonatal cells than from adult cells

interleukin 1: cytokine interleukin 1 added with ConA [reference compound]
IFN-γ secretion by ConA stimulated bovine PBMCs (bovine PBMCs): enhanced IFN production

polyinosinic-polycytidylic acid [Poly(I:C)]
innate immune response in neonatal and/or paediatric blood [2]: robust innate immune response in neonatal and/or paediatric blood
type I IFN (IFNα/β) production ([2]; neonatal CBMCs compared with adult PBMCs, stimulation 4, 8 or 24 h): no inhibition of type I IFN production in CBMCs when compared to PBMCs
IFNα secretion (ELISA) (PBMCs or CBMCs [3]): equivalent or enhanced CNA sensor responses in neonates compared to adults
TNFα production (PBMCs or CBMCs [1]): significantly more TNFα production from neonatal cells than from adult cells
CXCL10 mRNA expression (PBMCs or CBMCs [4]; 4 h): no inhibition of transcription
IFNα mRNA expression (PBMCs or CBMCs [4]; 24 h): no inhibition of transcription
TNFα mRNA expression (PBMCs or CBMCs [4]; CNA 4 h, LPS 2 h): no significant difference in TNFα levels
IRF7 activation (IRF7): not significantly activated
increase in IRF3 activation above basal levels (IRF3): ~80%
CXCL10 protein secretion (PBMCs or CBMCs [5]): no significant difference in the CXCL10 response between PBMCs or CBMCs
IFNγ (PBMCs or CBMCs [6]): induces Th1 polarising IL-12p70 and IFNγ in CBMCs; also recorded: significantly increased in CBMCs compared to PBMCs; also recorded: neonates produced significantly higher levels of both IL-12p70 and IFNγ
IL-10 (PBMCs or CBMCs [6]): low but detectable, with no significant difference between adult and cord blood cells noted; also recorded: no difference in levels of anti-inflammatory IL-10 or Th17-polarising IL-23 between neonates and adults
IL-12p70 (PBMCs or CBMCs [6]): induces Th1 polarising IL-12p70 and IFNγ in CBMCs; also recorded: increased in CBMCs compared to PBMCs; also recorded: significantly enhanced response to Poly(I:C) transfection was found in CBMCs compared to PBMCs; also recorded: neonates produced significantly higher levels of both IL-12p70 and IFNγ
IL-23 (PBMCs or CBMCs [6]): low but detectable, with no significant difference between adult and cord blood cells noted; also recorded: no difference in levels of anti-inflammatory IL-10 or Th17-polarising IL-23 between neonates and adults
TNFα production across age groups [7]: maintenance of cord blood responsiveness to CNA was also observed for both Poly(I:C) and Poly(dA:dT)-induced TNFα production to the age of 24 months
production of type I IFN across age groups [7]: maintained throughout childhood; also recorded: maintained up to the age of two
